Experimental findings from US5230897A, “Transdermal pentamidine” (priority 1991, dated 1993) are described below.

For orientation: bioavailability means the share of a dose that reaches the circulation, judged against a reference dose that is usually intravenous. Broadly, the AUC is concentration integrated over time. A high value points to more exposure. The term clearance denotes the volume of plasma or blood freed of the substance per unit of time.

The procedure of series [1]:
The in vitro studies described herein measured the rate of pentamidine transport across skin excised from a "nude" mouse. The skin is placed in a vertical two-chambered device. The skin partitions between a donor compartment containing a formulation to be tested and a receptor compartment containing the aqueous medium. The skin is clamped in place with skin epidermis facing the donor compartment. A water jacket maintains a constant temperature (37° C.).
The following pharmaceutical formulations were prepared by dissolving any dry ingredients (i.e. pentamidine isethionate, terpene, methyl paraben, propyl paraben) in the solvent (i.e. isopropyl alcohol/water or propylene glycol/water). […] Gentle stirring was then continued for the next 15 minutes or until the solution thickened. When polyquaternium-10 is the polymer heating was required to make the formulation gel.

Series [2] is described as follows: Pentamidine pharmacokinetics after transdermal application in Rhesus monkeys (plasma, urine, residual analysis).
A short description of series [3]: Pentamidine pharmacokinetics after IV infusion in Rhesus monkeys (plasma, urine). The series is classed as in vivo. On the procedure:
Pentamidine was administered to four Rhesus monkeys by an IV infusion of 1 hr duration which was designed to deliver 4 mg drug/kg animal weight. Urine samples were obtained at -24 to 0 hr, 0 to 3 hr, 3 to 7 hr, 7 to 24 hr and 24 to 48 hr. Blood (2 ml) was withdrawn from an arm vein at -24 hr, 0.5 hr, 1 hr, 2 hr, 3 hr, 5 hr, 7 hr, 24 hr and 48 hr after the end of the IV infusion. Plasma was obtained from the heparinized blood by centrifugation.

For series [4] the following is noted: rhesus monkey, in vivo.

Values joined by “and” are separate entries in the source; they are usually repeats but may differ in a detail not shown here. Equal entries are not always repeated. Where two headings read alike, the source gives them in different places.

Consider `CC1=CCC(C(C)(C)O)CC1` (stereo not drawn) [α-terpineol], for which the “penetration enhancement for transdermal delivery of pentamidine” value (“penetration enhancement” for short) in series [1] (result in words) was “effective penetration enhancers”.
As for `C=C(C)C1CC=C(C)C(=O)C1` (stereo not drawn) [carvone], the “penetration enhancement” value in series [1] (result in words) is given as “effective penetration enhancers”.
Consider `CC1CCC(C(C)C)C(O)C1` (stereo not drawn) [menthol], for which the “penetration enhancement” value in series [1] (result in words) is “effective penetration enhancers”.
Turning to `C=C(C)[C@@H]1CC[C@@H](C)C[C@H]1O` [isopulegol], the “penetration enhancement” value in series [1] (result in words) was “effective penetration enhancers”.
Consider `C=C(C)C1CC=C(C)[C@@H](O)C1` (stereo partly drawn) [carveol], for which the “penetration enhancement” value in series [1] is reported as “effective penetration enhancers”.
On to `C/C=C/c1ccc(OC)cc1` [t-anethole], for which the “penetration enhancement” value in series [1] (result in words) is listed as “effective penetration enhancers”.
Same read-out and setting: then `Cc1ccc(C(C)C)cc1O` [carvacrol], with “effective penetration enhancers”.
In the case of `CC1=CCC(O)(C(C)C)CC1` (stereo not drawn) [terpene-4-ol], the “penetration enhancement” value in series [1] is recorded as “effective penetration enhancers”.
For the compound `CC(C)[C@@H]1CC[C@@H](C)CC1=O` [menthone], the “penetration enhancement” value in series [1] (result in words) is recorded as “effective penetration enhancers”.
For the compound `C=C(C)C1CCC(C)C(=O)C1` (stereo not drawn) [dihydrocarvone], in series [1] (result in words), the “penetration enhancement” value is “effective penetration enhancers”.
`C=CC(C)(O)CCC=C(C)C` (stereo not drawn) [linalol]: the “penetration enhancement” value in series [1] (result in words) was “effective penetration enhancers”.
`CC(C)=C1CC[C@@H](C)CC1=O` [pulegone]: in series [1] (result in words), the “penetration enhancement” value is “effective penetration enhancers”.
For `N=C(N)c1ccc(OCCCCCOc2ccc(C(=N)N)cc2)cc1` [pentamidine, 4,4'-[1,5-Pentanediylbis(oxy)]bisbenzenecarboximidamide], the “% Absolute Bioavail.” value in series [2] ((AUCtrans/AUCiv) × (DOSEiv/DOSEtrans) × 100, individual monkeys 1, 2, 3, 4) was 99.2% and 29.03% and 18.99% and 27.19%. The “residual pentamidine recovered from transdermal chambers” value in series [2] (chambers removed 24 hr after application) is “Only small amounts of the original dose of pentamidine were recovered”. Besides, in series [2] (dose absorbed from urine % bioavailability, average of 4 monkeys), the “% Dose absorbed excreted in urine, transdermal dose 0-48, Average (SD)” value is recorded as 2.26 (1.45) %. Further, in series [2] (dose absorbed from urine % bioavailability, individual monkeys 1, 2, 3, 4), the “% Dose absorbed excreted in urine, transdermal dose 0-48” value was 2.15% and 3.88% and 2.62% and 0.38%. The “% Bioavailability” value in series [2] (dose-corrected ratio of total pentamidine excreted in urine, transdermal vs IV, individual monkeys 1, 2, 3, 4) was 50.34% and 19.32% and 73.28% and 85.62%. In addition, the “AUC, Trans (0-72 hr)” value in series [2] (plasma, transdermal 292 mg, individual monkeys 1, 2, 3, 4, 4320 min) was 7407 (ng/ml) h and 3426 (ng/ml) h and 2721 (ng/ml) h and 4384 (ng/ml) h. The bioavailability in series [2] (rhesus monkey, plasma, topical or ocular, 292 mg, % Absolute Bioavail., Average (SD), (AUCtrans/AUCiv) × (DOSEiv/DOSEtrans) × 100, average of 4 monkeys) worked out at 43.6%; in series [2] (rhesus monkey, urine, topical or ocular, 292 mg, % Bioavailability, Average (SD), dose-corrected ratio of total pentamidine excreted in urine, transdermal vs IV, average of 4 monkeys), 57.1%. In addition, the exposure (AUC) at 72 h in series [2] (rhesus monkey, plasma, topical or ocular, 292 mg, AUC, Trans (0-72 hr), Average (SD), transdermal 292 mg, average of 4 monkeys) came out at 4480 ng·h/mL. The compound also had a Fa at 24 h in series [2] (rhesus monkey, residual in pads, topical or ocular, 292 mg, % Absorbed (from residual analysis in the pads), Average (SD), transdermal, average of 4 monkeys) of 57.7%. In series [2] (transdermal, individual monkeys 1, 2, 3, 4, 1440 min), the “% Absorbed (from residual analysis in the pads)” value is 70.9% and 54.4% and 58.8% and 46.5%. Also, in series [2] (urine, transdermal, average of 4 monkeys), the “Urine Cum. Pentam., Trans. 0-48 h, Average (SD)” value is 2.98 (1.97) mg. The “Urine Cum. Pentam., Trans. 0-48 h” value in series [2] (urine, transdermal, individual monkeys 1, 2, 3, 4) is 3.16 mg and 2.18 mg and 5.61 mg and 0.95 mg. In series [3] (DOSEiv/AUCiv, individual monkeys 1, 2, 3, 4, 4 mg/kg), the “Total Clearance, IV dose” value was 39.27 lt/h and 24.18 lt/h and 20.38 lt/h and 19.38 lt/h. In addition, the “AUC, IV (0-5 h)” value in series [3] (plasma, IV 4 mg/kg, 1 hr infusion, individual monkeys 1, 2, 3, 4, 4 mg/kg, 300 min) is 428 (ng/ml) h and 719 (ng/ml) h and 883 (ng/ml) h and 784 (ng/ml) h. In series [3] (rhesus monkey, plasma, iv, 4 mg/kg, AUC, IV (0-5 h), Average (SD), IV 4 mg/kg, 1 hr infusion, average of 4 monkeys), this compound displayed an AUC at 5 h of 704 ng·h/mL. In addition, in series [3] (rhesus monkey, plasma, iv, 4 mg/kg, DOSEiv/AUCiv, average of 4 monkeys, read-out: Total Clearance, IV dose, Average (SD) (converted)), the clearance was 430 mL/min. Moreover, the dose excreted at 48 h in series [3] (rhesus monkey, urine, iv, 4 mg/kg, IV, average of 4 monkeys, read-out: % Dose excreted in urine, IV dose 0-48 h, Average (SD)) worked out at 2.28%. In addition, in series [3] (rhesus monkey, urine, iv, 4 mg/kg, amount in urine (0-48 h)/AUCiv, average of 4 monkeys, read-out: Renal Clearance, IV dose, Average (SD) (converted)), the CL renal at 48 h is 10 mL/min. Further, in series [3] (urine, IV, average of 4 monkeys), the “Urine Cum. Pentam., IV 0-48 h, Average (SD)” value is 0.39 (0.27) mg. Besides, the “Urine Cum. Pentam., IV 0-48 h” value in series [3] (urine, IV, individual monkeys 1, 2, 3, 4) is 0.360 mg and 0.691 mg and 0.473 mg and 0.054 mg. Besides, the “blood levels of pentamidine by transdermal delivery” value in series [4] was “effective blood levels of pentamidine can be achieved by transdermal delivery”.
As to `Cc1ccc(C(C)C)c(O)c1` [thymol], in series [1] (result in words), the “penetration enhancement” value is “effective penetration enhancers”.
Regarding `CC12CCC(CC1=O)C2(C)C` (stereo not drawn) [camphor], the “penetration enhancement” value in series [1] (result in words) was “effective penetration enhancers”.
On the same count and under the same terms, then `CC(C)[C@@H]1CC[C@@H](C)C[C@@H]1O` (relative stereo) [neomenthol], with “effective penetration enhancers”; and `CC(C)=CCCC(C)=CC=O` [citral], with “effective penetration enhancers”.
Same read-out and setting: for `C=C(C)C1CCC(C)C(O)C1` (stereo not drawn) [dihydrocarveol] the value was “effective penetration enhancers”.
